In brackets after ≈: the same amount, converted by molar mass.
Key:
[1] = test system: Staphylococcus aureus; experiment: Antibacterial activity against Staphylococcus aureus ATCC 4163 after 18 hrs by serial microdilution method; format: functional; conditions: ATCC 4163, 18 h
[2] = test system: Staphylococcus aureus; experiment: Antibacterial activity against Staphylococcus aureus ATCC 25923 after 18 hrs by serial microdilution method; format: functional; conditions: ATCC 25923, 18 h
[3] = test system: Staphylococcus aureus; experiment: Antibacterial activity against Staphylococcus aureus ATCC 6538 after 18 hrs by serial microdilution method; format: functional; conditions: ATCC 6538, 18 h
[4] = test system: Staphylococcus epidermidis; experiment: Antibacterial activity against Staphylococcus epidermidis ATCC 12228 after 18 hrs by serial microdilution method; format: functional; conditions: ATCC 12228, 18 h
[5] = test system: Staphylococcus epidermidis; experiment: Antibacterial activity against Staphylococcus epidermidis ATCC 49134 after 18 hrs by serial microdilution method; format: functional; conditions: ATCC 49134, 18 h
[6] = test system: Escherichia coli; experiment: Antibacterial activity against Escherichia coli ATCC 10538 after 18 hrs by serial microdilution method; format: functional; conditions: ATCC 10538, 18 h
[7] = test system: Enterococcus faecalis; experiment: Antibacterial activity against Enterococcus faecalis ATCC 19433 after 18 hrs by serial microdilution method; format: functional; conditions: ATCC 19433, 18 h
[8] = test system: Salmonella enterica subsp. enterica serovar Abony; experiment: Antibacterial activity against Salmonella abony NCTC 6017 after 18 hrs by serial microdilution method; format: functional; conditions: NCTC 6017, 18 h
[9] = test system: Trichophyton rubrum; experiment: Antifungal activity against Trichophyton rubrum ATCC 28188 after 18 hrs by serial microdilution method; format: functional; conditions: ATCC 28188, 18 h
[10] = test system: Candida albicans; experiment: Antifungal activity against Candida albicans ATCC 10231 after 18 hrs by serial microdilution method; format: functional; conditions: ATCC 10231, 18 h
[11] = test system: Mycobacterium tuberculosis; experiment: Antituberculosis activity against Mycobacterium tuberculosis H37Rv after 7 days by serial two fold dilution method; format: functional; conditions: 168 h
[12] = Solubility in water at pH 7 and 25 degC by UV-vis spectrophotometry; format: physicochemical
[13] = Octanol-water partition coefficient, log P of the compound; format: physicochemical

SMILES | MIC [1] [µg/mL] | MIC [2] [µg/mL] | MIC [3] [µg/mL] | MIC [4] [µg/mL] | MIC [5] [µg/mL] | MIC [6] [µg/mL] | MIC [7] [µg/mL] | MIC [8] [µg/mL] | MIC [9] [µg/mL] | MIC [10] [µg/mL] | MIC [11] [µg/mL] | solubility [12] [µg/mL] | logP [13]
CO[C@H]1/C=C/O[C@@]2(C)Oc3c(C)c(O)c4c(O)c(c(CNCCCN5CCCC5)c(O)c4c3C2=O)NC(=O)/C(C)=C\C=C\[C@H](C)[C@H](O)[C@@H](C)[C@@H](O)[C@@H](C)[C@H](OC(C)=O)[C@@H]1C | 0.5 (≈ 0.597 µM) | 1 (≈ 1.19 µM) | 0.5 (≈ 0.597 µM) | 0.5 (≈ 0.597 µM) | 0.25 (≈ 0.298 µM) | > 1 | > 1 | > 1 | > 1 | > 1 | 0.5 (≈ 0.597 µM) | 240 (≈ 286 µM) | 2.04
CO[C@H]1/C=C/O[C@@]2(C)Oc3c(C)c(O)c4c(O)c(c(C=O)c(O)c4c3C2=O)NC(=O)/C(C)=C\C=C\[C@H](C)[C@H](O)[C@@H](C)[C@@H](O)[C@@H](C)[C@H](OC(C)=O)[C@@H]1C | > 1 | > 1 | > 1 | > 1 | > 1 | > 1 | > 1 | > 1 | > 1 | > 1 | > 1 | 100 (≈ 138 µM) | 1.71
CO[C@H]1/C=C/O[C@@]2(C)Oc3c(C)c(O)c4c(O)c(c(CNC5CCN(Cc6ccccc6)CC5)c(O)c4c3C2=O)NC(=O)/C(C)=C\C=C\[C@H](C)[C@H](O)[C@@H](C)[C@@H](O)[C@@H](C)[C@H](OC(C)=O)[C@@H]1C | 0.25 (≈ 0.278 µM) | 0.25 (≈ 0.278 µM) | 0.25 (≈ 0.278 µM) | 0.25 (≈ 0.278 µM) | 0.25 (≈ 0.278 µM) | > 1 | > 1 | > 1 | > 1 | > 1 | 0.005 (≈ 0.00556 µM) | < 10 | 3.25
CO[C@H]1/C=C/O[C@@]2(C)Oc3c(C)c(O)c4c(O)c(c(CNCCN(C)C)c(O)c4c3C2=O)NC(=O)/C(C)=C\C=C\[C@H](C)[C@H](O)[C@@H](C)[C@@H](O)[C@@H](C)[C@H](OC(C)=O)[C@@H]1C | 1 (≈ 1.25 µM) | > 1 | 1 (≈ 1.25 µM) | 0.5 (≈ 0.627 µM) | 0.5 (≈ 0.627 µM) | > 1 | > 1 | > 1 | > 1 | > 1 | > 1 | 320 (≈ 401 µM) | 1.48
CCCc1cn(CCN2Cc3c4c(O)c5c(O)c(C)c6c(c5c3O)C(=O)[C@@](C)(O/C=C/[C@H](OC)[C@@H](C)[C@@H](OC(C)=O)[C@H](C)[C@H](O)[C@H](C)[C@@H](O)[C@@H](C)/C=C/C=C(/C)C2=N4)O6)nn1 | 1 (≈ 1.18 µM) | > 1 | > 1 | > 1 | > 1 | > 1 | > 1 | > 1 | > 1 | > 1 | 1 (≈ 1.18 µM) | < 10 | 3.13
CCCCCc1cn(CCCN2Cc3c4c(O)c5c(O)c(C)c6c(c5c3O)C(=O)[C@@](C)(O/C=C/[C@H](OC)[C@@H](C)[C@@H](OC(C)=O)[C@H](C)[C@H](O)[C@H](C)[C@@H](O)[C@@H](C)/C=C/C=C(/C)C2=N4)O6)nn1 | 1 (≈ 1.13 µM) | > 1 | > 1 | > 1 | > 1 | > 1 | > 1 | > 1 | > 1 | > 1 | 1 (≈ 1.13 µM) | < 10 | 4.47
CO[C@H]1/C=C/O[C@@]2(C)Oc3c(C)c(O)c4c(O)c5c(c(O)c4c3C2=O)CN(Cc2cn(CN3C(=O)c4ccccc4C3=O)nn2)C(=N5)/C(C)=C\C=C\[C@H](C)[C@H](O)[C@@H](C)[C@@H](O)[C@@H](C)[C@H](OC(C)=O)[C@@H]1C | 1 (≈ 1.05 µM) | > 1 | > 1 | > 1 | > 1 | > 1 | > 1 | > 1 | > 1 | > 1 | 0.5 (≈ 0.527 µM) | < 10 | 3.26
CO[C@H]1/C=C/O[C@@]2(C)Oc3c(C)c(O)c4c(O)c(c(CNCCCN5CCN(CCCNCc6c7c(O)c8c(O)c(C)c9c(c8c6O)C(=O)[C@@](C)(O/C=C/[C@H](OC)[C@@H](C)[C@@H](OC(C)=O)[C@H](C)[C@H](O)[C@H](C)[C@@H](O)[C@@H](C)/C=C/C=C(/C)C(=O)N7)O9)CC5)c(O)c4c3C2=O)NC(=O)/C(C)=C\C=C\[C@H](C)[C@H](O)[C@@H](C)[C@@H](O)[C@@H](C)[C@H](OC(C)=O)[C@@H]1C | > 1 | > 1 | > 1 | > 1 | > 1 | > 1 | > 1 | > 1 | > 1 | > 1 | > 1 | < 10 | 3.83
CCCCCc1cn(CCCNCc2c3c(O)c4c(O)c(C)c5c(c4c2O)C(=O)[C@@](C)(O/C=C/[C@H](OC)[C@@H](C)[C@@H](OC(C)=O)[C@H](C)[C@H](O)[C@H](C)[C@@H](O)[C@@H](C)/C=C/C=C(/C)C(=O)N3)O5)nn1 | 1 (≈ 1.1 µM) | > 1 | 1 (≈ 1.1 µM) | 0.5 (≈ 0.552 µM) | 0.5 (≈ 0.552 µM) | > 1 | > 1 | > 1 | > 1 | > 1 | 0.5 (≈ 0.552 µM) | < 10 | 3.42
CO[C@H]1/C=C/O[C@@]2(C)Oc3c(C)c(O)c4c(O)c(c(/C=N/N5CCN(C)CC5)c(O)c4c3C2=O)NC(=O)/C(C)=C\C=C\[C@H](C)[C@H](O)[C@@H](C)[C@@H](O)[C@@H](C)[C@H](OC(C)=O)[C@@H]1C [RIFAMPIN] | 0.008 (≈ 0.00972 µM) | 0.016 (≈ 0.0194 µM) | 0.008 (≈ 0.00972 µM) | 0.004 (≈ 0.00486 µM) | 0.004 (≈ 0.00486 µM) | > 1 | 1 (≈ 1.22 µM) | > 1 | > 1 | > 1 | 0.005 (≈ 0.00608 µM) |  | 1.66
CCCc1cn(CCNCc2c3c(O)c4c(O)c(C)c5c(c4c2O)C(=O)[C@@](C)(O/C=C/[C@H](OC)[C@@H](C)[C@@H](OC(C)=O)[C@H](C)[C@H](O)[C@H](C)[C@@H](O)[C@@H](C)/C=C/C=C(/C)C(=O)N3)O5)nn1 | 1 (≈ 1.16 µM) | > 1 | 1 (≈ 1.16 µM) | 0.5 (≈ 0.579 µM) | 0.5 (≈ 0.579 µM) | > 1 | > 1 | > 1 | > 1 | > 1 | 1 (≈ 1.16 µM) | < 10 | 2.14
CO[C@H]1/C=C\O[C@@]2(C)Oc3c(C)c(O)c4c(O)c(c(CNC5CCN(Cc6ccccc6)CC5)c(O)c4c3C2=O)NC(=O)/C(C)=C\C=C/[C@H](C)[C@H](O)[C@@H](C)[C@@H](O)[C@@H](C)[C@H](OC(C)=O)[C@@H]1C | 0.125 (≈ 0.139 µM) | 0.25 (≈ 0.278 µM) | 0.125 (≈ 0.139 µM) | 0.06 (≈ 0.0667 µM) | 0.03 (≈ 0.0333 µM) |  |  |  |  |  | 0.005 (≈ 0.00556 µM) | 150 (≈ 167 µM) | 2.05
CO[C@H]1/C=C/O[C@@]2(C)Oc3c(C)c(O)c4c(O)c(c(CNCCCn5ccnc5)c(O)c4c3C2=O)NC(=O)/C(C)=C\C=C\[C@H](C)[C@H](O)[C@@H](C)[C@@H](O)[C@@H](C)[C@H](OC(C)=O)[C@@H]1C | 0.5 (≈ 0.599 µM) | 1 (≈ 1.2 µM) | 0.5 (≈ 0.599 µM) | 0.5 (≈ 0.599 µM) | 0.25 (≈ 0.299 µM) | > 1 | > 1 | > 1 | > 1 | > 1 | 1 (≈ 1.2 µM) | 330 (≈ 395 µM) | 1.78
CO[C@H]1/C=C/O[C@@]2(C)Oc3c(C)c(O)c4c(O)c(c(CNCCN5CCCC5)c(O)c4c3C2=O)NC(=O)/C(C)=C\C=C\[C@H](C)[C@H](O)[C@@H](C)[C@@H](O)[C@@H](C)[C@H](OC(C)=O)[C@@H]1C | 1 (≈ 1.21 µM) | 1 (≈ 1.21 µM) | 1 (≈ 1.21 µM) | 0.5 (≈ 0.607 µM) | 0.5 (≈ 0.607 µM) | 1 (≈ 1.21 µM) | 1 (≈ 1.21 µM) | 1 (≈ 1.21 µM) | 1 (≈ 1.21 µM) | 1 (≈ 1.21 µM) | 0.5 (≈ 0.607 µM) | 240 (≈ 291 µM) | 1.55
CO[C@H]1/C=C/O[C@@]2(C)Oc3c(C)c(O)c4c(O)c(c(CNCc5cn(CN6C(=O)c7ccccc7C6=O)nn5)c(O)c4c3C2=O)NC(=O)/C(C)=C\C=C\[C@H](C)[C@H](O)[C@@H](C)[C@@H](O)[C@@H](C)[C@H](OC(C)=O)[C@@H]1C | 1 (≈ 1.03 µM) | > 1 | 1 (≈ 1.03 µM) | 0.5 (≈ 0.517 µM) | 0.5 (≈ 0.517 µM) | > 1 | > 1 | > 1 | > 1 | > 1 | 0.25 (≈ 0.259 µM) | < 10 | 2.24

From ChEMBL document CHEMBL3352679, “Structure and evaluation of antibacterial and antitubercular properties of new basic and heterocyclic 3-formylrifamycin SV derivatives obtained via 'click chemistry' approach” (Eur J Med Chem, 2014)
